# Measured values: patent US10813931B2, “Methods and compositions relating to the treatment of cancer” (THE BRIGHAM AND WOMEN'S HOSPITAL, INC., priority 2013, dated 2020)
# What was measured:
# 231 DTC and 468DTC = assay: Cell viability of DTC subsets with dasatinib, PI103, combination or DPNP; format: cell-based, human; conditions: combination of PI103 and dasatinib (1:1), 48 h
# Protocol: (§1) Parent cells DTC or Parent^Phenocopy were generated as described and plated at a concentration of 1.5×10^5 in a clear bottom 96-well plate. Cells were exposed to indicated treatments ([…]) for 48 hours in serum containing medium. Following incubation, cells were washed 1 time with PBS and recovered in serum and phenol red-free RPMI or DMEM and subsequently treated with MTS following manufacturer protocol (Promega, Madison, Wis.). Drug sensitivity index (SI) was determined as follows: Cell viability was determined as % of control for treatment conditions of 10 nM, 100 nM 1000 nM and 10 μM to generate an average cell viability across these 4 drug concentrations. SI was calculated as a ratio of parent:DTC or parent:parent^phenocopy. SI=1 correlates to parental sensitivity, SI<1 correlates to resistance compared to parent cell line and SI>1 correlates to enhanced sensitivity to the indicated drug compared to the parent cell line at the same concentration average.
# 231 parent and DTC = assay: Cell viability (MTS) and drug sensitivity index, 231 parent vs DTC vs 231Phenocopy; format: cell-based, human; conditions: for cell viability of DTC, SFK and BCR-Abl inhibition separately and in combination: 231 DTC, PP2 and imatinib in combination
# Protocol: (§2) Following viability analyses conducted as described in supplemental data, drug sensitivity index (SI) was determined as follows: Cell viability was determined as % of control for treatment conditions of 10 nM, 100 nM 1000 nM and 10 μM to generate an average cell viability across these 4 drug concentrations. SI was calculated as a ratio of parent:DTC or parent:parent^phenocopy. SI=1 correlates to parental sensitivity, SI<1 correlates to resistance compared to parent cell line and SI>1 correlates to enhanced sensitivity to the indicated drug compared to the parent cell line at the same concentration average.
# as §1, with “Cells” for “Parent cells DTC or Parent^Phenocopy were generated as described and plated at a concentration of 1.5×10^5 in a clear bottom 96-well plate. Cells”
# [1] = test system: 468 parent cells and a subset of DTC; assay: Survival curves of 468 parent cells and DTC exposed to chemotherapy; format: cell-based, human; conditions: 48 h exposure
# Protocol: MDA-MB-231, MDA-MB-468 were purchased from ATCC. For acute treatments, cells were plated at a density of 0.5-1×10^5 cells/ml and allowed to adhere for 24-48 hr. when cells reached ˜70% confluency they were treated with antitubulins at indicated concentrations for 4-24 hours and utilized for subsequent assays. To generate chemotherapy tolerant subset, cells were treated with indicated concentrations of chemotherapy (48). Following washes with PBS, adherent cells were trypsinized and re-plated at a density of 1.5-2×10^5 cells/ml and cultured in serum-containing medium. After 24 hours incubation, floating cells were removed and remaining cells were washed with 1×PBS and considered a subpopulation of chemotherapy-tolerant cells. A separate plate of control cells were maintained concurrently in serum containing medium and provided fresh media at every interval where DTC received fresh media. […]
# Parent cells DTC or Parent^Phenocopy were generated as described and plated at a concentration of 1.5×10^5 in a clear bottom 96-well plate. […] Drug sensitivity index (SI) was determined as follows: Cell viability was determined as % of control for treatment conditions of 10 nM, 100 nM 1000 nM and 10 μM to generate an average cell viability across these 4 drug concentrations. SI was calculated as a ratio of parent:DTC or parent:parent^phenocopy. […]
# [2] = test system: 4T-1 mouse mammary carcinoma; assay: 4T-1 tumor growth in Balb/C mice; format: in vivo
# Protocol: 4-6 week old Balb/C mice (Charles River, Cambridge Mass.) were inoculated with 10^6 4 T-1 mouse mammary carcinoma cells in the left flank (Charles River, Cambridge Mass.). Mice identified with tumors were treated with docetaxel (DTX) or vehicle twice at 72 hour intervals at 10 mg/kg i.v. or 15 mg/kg i.p. and subsequently treated with dasatinib i.p. or nanoparticles i.v. 72 hours following the final DTX dose. Tumors were harvested at indicated time points and evaluated for protein phosphorylation and expression. Experimental detail provided in supplemental data.
# 1 million 4T-1 mouse mammary carcinoma cells suspended in 100 µL PBS were injected per left flank of 5-6 week old Balb/C (Charles River, Wilmington Mass.). DTX was dissolved in pure Ethanol at a concentration of 50 mg/ml mixed 1:1 with Polysorbate 80 (Tween 80) and brought to a final working concentration with 5% glucose in PBS. Once Tumors became palpable (˜100 mm^3), DTX or vehicle treatments were administered at 100 μL volumes. Dasatinib was dissolved in DMSO to working concentration and delivered as 50 μL injections on indicated days, 50 µL DMSO used as a control in these studies. Tumor volumes were measured by a third party unaware of treatment conditions using digital calipers (Starlett, Athol, Mass.), volumes were assessed by the following formula: (Width×Width×length)/2 and expressed as relative volume increase from day 1. Tumor homogenate was prepared by homogenization of equal weight tissue sections incubated in 3×RIPA buffer containing 2× protease/phosphatase inhibitor cocktail (Thermo Fisher, Waltham, Mass.).
# TNBC = conditions: 2011, cited from earlier work
# AKT signaling = assay: Western blot of phosphorylated and total Akt in 231 DTC; format: cell-based, human; conditions: increasing doses, 4 h
# Protocol: Laemli sample buffer was prepared as a 5× solution containing β-mercaptoethanol as a reducing agent. Immunoprecipitaion was performed using both classic and direct IP kits purchased from Pierce following manufacturer protocols (Thermo Fisher inc. Rockford, Ill.). Briefly, cell lysates were prepared using IP/Lysis Buffer (Thermo Fisher inc. Rockford, Ill.) in the presence of 2×HALT protease/phosphatase inhibitor cocktail (Thermo Fisher inc. Rockford, Ill.). For classic Immunoprecipitation, lysates were combined with indicated antibodies for 48 hours at 4 C and combined with protein A/G agarose beads for 4 hours prior to elution with 2× Laemli Buffer at 100 C. Direct immunoprecipitation was performed following manufacturer protocol. Briefly, antibodies were covalently attached to agarose beads, lysate was combined with antibody-agarose bead conjugates for 24 hours prior to washes and elution with provided Elution Buffer. Protein samples were resolved by SDS-PAGE and transferred to PVDF membranes prior to incubation at 4 C with indicated primary antibodies. […] Optical densities of western blots were measured using ImageJ™ open source software (National Institutes of Health) and validated using Adobe CS5™.
# [3] = test system: DTC subsets derived from multiple cancer types; assay: Drug sensitivity index of dasatinib in DTC isolated from multiple cell lines; format: cell-based; conditions: DTC from multiple cell lines vs parent, 48 h
# Protocol: as §2
# as §1, with “SI=1 correlates to parental sensitivity, SI<1 correlates to resistance compared to parent cell line and SI>1 correlates to enhanced sensitivity to the indicated drug compared to the parent cell line at the same concentration average.” left out
# [4] = test system: explant from stage IV, metastatic breast cancer patient; assay: Refractory stage IV metastatic breast cancer explant, caspase activation; parameters: species or system human; conditions: combination of dasatinib with DTX, 48 h
# Protocol: Fresh tumor tissues were collected from breast cancer patients immediately after surgical resection at HCG cancer hospital, Bangalore, India. The tumor samples were transported to the laboratory at 4° C., in appropriate transport buffer within 60 minutes post-resection, for ex-vivo studies and molecular and pathological evaluation. Tissues were cut into thin sections and cultured in 96 well plate using optimized conditions (Radhakrishnan et al., 2013). Tumors were treated with a taxane-containing regimen (Docetaxel+Doxorubicin+Cyclophosphamide) or other drugs as indicated. DMSO was used as a vehicle control. After 48 hrs of treatment, tumor cell viability was measured and release of soluble cleaved caspase-3 and caspase-8 were determined.
# Human Tumor tissues were fixed in Phos stop (Roche) containing 4% buffered formalin and embedded in paraffin. Prior to immunohistochemical staining of target proteins 4-μm-thick tissue sections mounted in poly L lysine coated glass slides were deparaffinized and rehydrated. Heat induced antigen retrieval was achieved using citrate buffer (pH7.8). […] Immunoreactivity was scored by intensity of staining (0, no staining, 1 weak; 2 moderate; 3 strong) and percentage of positive cells. By multiplying both values, a final score was calculated. […]
# MDA-MB-231 (231) = assay: CD44 surface expression by FACS in 231 cells; format: cell-based, human; conditions: 231 cells surviving 500 nM doxorubicin
# Protocol: MDA-MB-231, MDA-MB-468 were purchased from ATCC. For acute treatments, cells were plated at a density of 0.5-1×10^5 cells/ml and allowed to adhere for 24-48 hr. when cells reached ˜70% confluency they were treated with antitubulins at indicated concentrations for 4-24 hours and utilized for subsequent assays. To generate chemotherapy tolerant subset, cells were treated with indicated concentrations of chemotherapy (48). Following washes with PBS, adherent cells were trypsinized and re-plated at a density of 1.5-2×10^5 cells/ml and cultured in serum-containing medium. […]
# Cells were cultured as indicated and fixed with 4% paraformaldehyde in PBS for 30 min at RT and blocked in 10% goat serum (v/v). Following PBS washes, cells were incubated with indicated antibodies for 60 minutes at room temperature or overnight at 4 C and analyzed by FACS (Accuri cyomteters Inc. Ann Arbor, Mich.). Cell cycle analyzed in propidium iodide solution following incubation in 70% Ethanol overnight at 4 C and following manufacturer protocol (Genscript USA Inc. Piscataway, N.J.). AnnexinV/PI was analyzed FACS following manufacturer protocol (BD, Ann Arbor Mich.). All FACS results were analyzed by FlowJo™ software following a rigorous doublet discrimination based on FSC:A vs. width as well as FSC:A vs. height (Tree Star Inc., Ashland Oreg.). […]
# AKT and ezrin signaling = assay: Western blot of AKT, ezrin and ERM signaling in 468 cells treated with DTX +/- erlotinib; format: cell-based, human; conditions: 10 nM DTX +/- erlotinib, 24 h
# Protocol: MDA-MB-231 (ATCC) were cultured in DMEM containing 10% Fetal Bovine Serum (FBS), MDA-MB-468 MDA-MB-435 and 4T-1 mammary carcinoma cells (ATCC) were cultured in RPMI containing 10% FBS (Invitrogen, Carlsbad Calif.) at 37 C and 5% CO2. During treatments with chemotherapeutics, cells were grown to semi-confluence and treated with indicated concentrations of chemotherapy in serum-containing medium for indicated time points. When small molecule inhibitors were included in treatments, they were added simultaneously with chemotherapy. For siRNA gene knockdown, cells were plated at a concentration of 5×10^4 cells/ml. Pre-validated Silencer Select siRNA targeting pan-CD44 (5′[…]tt3′) (SEQ ID NO: 38) or Ezrin (5′[…]tt3′) (SEQ ID NO: 39) were purchased from Ambion (Invitrogen, Grand Island, N.Y.). siRNA plasmids were transfected using lipofectamine 2000 (Invitrogen, Carlsbad Calif.) following manufacturer protocol and cultured for 72 hours prior to treatment. Scrambled siRNA was used as a control.
# Laemli sample buffer was prepared as a 5× solution containing β-mercaptoethanol as a reducing agent. […] Optical densities of western blots were measured using ImageJ™ open source software (National Institutes of Health) and validated using Adobe CS5™.
structure (smiles),measurement,setting,value
Oc1cccc(-c2nc(N3CCOCC3)c3oc4ncccc4c3n2)c1 [PI103],"cell death in the DTC subset, combination",231 DTC and 468DTC,synergistic induction of cell death
CC(C)(C)n1nc(-c2ccc(Cl)cc2)c2c(N)ncnc21 [PP2],"cell viability of DTC, SFK and BCR-Abl inhibition separately and in combination",231 parent and DTC,dual inhibition does not further augment the sensitivity of the DTC population
CO[C@H]1C(=O)[C@]2(C)[C@@H](OC)C[C@H]3OC[C@@]3(OC(C)=O)[C@H]2[C@H](OC(=O)c2ccccc2)[C@]2(O)C[C@H](OC(=O)[C@H](O)[C@@H](NC(=O)OC(C)(C)C)c3ccccc3)C(C)=C1C2(C)C [cabazitaxel],susceptibility of DTC to chemotherapy vs parent cell,[1],insensitive
Cc1nc(Nc2ncc(C(=O)Nc3c(C)cccc3Cl)s2)cc(N2CCN(CCO)CC2)n1 [dasatinib],sensitivity (SI) of 231Phenocopy,231 parent and DTC; 231Phenocopy vs 231 parent,regained parental sensitivity
same,Sensitivity index (SI),"231 parent and DTC; DTC vs parental cell line, 48 h, average viability across 10 nM, 100 nM, 1000 nM and 10 μM",> 1
same,tumor growth rate (specific growth rate),"[2]; 'Early Dasatinib', given 72 hours following DTX",significantly augmented the reversal of tumor growth rate
same,tumor growth rate (specific growth rate),"[2]; 'Late Dasatinib', 216 hours following DTX",ineffective
same,relative tumor volume,[2]; early treatment group after DTX,tumor regression could be achieved
same,relative tumor volume,[2]; late treatment after DTX vs matched vehicle control,no difference over a matched vehicle control
same,clinical efficacy as single-agent in TNBC,TNBC; Finn et al.,failed as a single-agent
same,toxicity in clinical trials,TNBC; Herold et al.,significant toxic burden
same,"AKT signaling (phosphorylated Akt, western blot)",AKT signaling,"reduced, to a minor degree, AKT signaling"
same,dasatinib sensitivity-index in additional DTC subsets,[3],consistent in additional DTC subsets derived from multiple cancer types
same,"cell death in the DTC subset, combination",231 DTC and 468DTC,synergistic induction of cell death
same,"apoptosis, cleaved caspase 3 (IHC)",[4],could re-sensitize the refractory cancer tissue to chemotherapy
same,caspase 8 levels,[4],no change
COc1cccc2c1C(=O)c1c(O)c3c(c(O)c1C2=O)C[C@@](O)(C(=O)CO)C[C@@H]3O[C@H]1C[C@H](N)[C@H](O)[C@H](C)O1 [doxorubicin],CD44 expression of doxorubicin tolerant cells (Dox-TC),MDA-MB-231 (231),robust expression of CD44
same,susceptibility of DTC to chemotherapy vs parent cell,[1],acquired resistance
C#Cc1cccc(Nc2ncnc3cc(OCCOC)c(OCCOC)cc23)c1 [erlotinib],ERM-complex signaling,AKT and ezrin signaling,remained intact
same,induction of AKT and ezrin signaling in response to chemotherapy,AKT and ezrin signaling,prevented induction of AKT and ezrin signaling
Cc1ccc(NC(=O)c2ccc(CN3CCN(C)CC3)cc2)cc1Nc1nccc(-c2cccnc2)n1 [imatinib],"cell viability of DTC, SFK and BCR-Abl inhibition separately and in combination",231 parent and DTC,dual inhibition does not further augment the sensitivity of the DTC population
